The results in this text go back to patent US20260132129A1 (Genesis Therapeutics, Inc., priority 2022, published 2026).

The target of this test is T1, PI3Kα H1047R (T47D cells) (Homo sapiens, UniProt P42336, H1047R).
T1 construct: endogenous in cells; host or cells: T47D cells
Put plainly: PI3Kα cellular assay: pAKT HTRF in T47D cells after EGF stimulation. The test is classed as cell-based. To be noted: for IC50: T47D cells (PI3Kα H1047R), pAKT S473 HTRF, EGF stimulation; for T47D pAKT S473 HTRF IC50 (H1047R): T47D (H1047R) selectivity over SKBR3 (WT): selectivity of T47D (H1047R) over SKBR3 (WT) pAKT IC50. In outline:
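T47D cells (PIK3CA H1047R) serum-starved 16 h, then treated 1 h at 37 °C with compound (10,000 nM top, 3-fold steps to 0.5 nM). After 10 min stimulation with 20 ng/mL EGF, cells were lysed and pAKT measured by HTRF.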
(In general: TR-FRET usually uses a lanthanide donor and a delayed reading to cut background.)

T1 sequence (P42336 whole entry H1047R): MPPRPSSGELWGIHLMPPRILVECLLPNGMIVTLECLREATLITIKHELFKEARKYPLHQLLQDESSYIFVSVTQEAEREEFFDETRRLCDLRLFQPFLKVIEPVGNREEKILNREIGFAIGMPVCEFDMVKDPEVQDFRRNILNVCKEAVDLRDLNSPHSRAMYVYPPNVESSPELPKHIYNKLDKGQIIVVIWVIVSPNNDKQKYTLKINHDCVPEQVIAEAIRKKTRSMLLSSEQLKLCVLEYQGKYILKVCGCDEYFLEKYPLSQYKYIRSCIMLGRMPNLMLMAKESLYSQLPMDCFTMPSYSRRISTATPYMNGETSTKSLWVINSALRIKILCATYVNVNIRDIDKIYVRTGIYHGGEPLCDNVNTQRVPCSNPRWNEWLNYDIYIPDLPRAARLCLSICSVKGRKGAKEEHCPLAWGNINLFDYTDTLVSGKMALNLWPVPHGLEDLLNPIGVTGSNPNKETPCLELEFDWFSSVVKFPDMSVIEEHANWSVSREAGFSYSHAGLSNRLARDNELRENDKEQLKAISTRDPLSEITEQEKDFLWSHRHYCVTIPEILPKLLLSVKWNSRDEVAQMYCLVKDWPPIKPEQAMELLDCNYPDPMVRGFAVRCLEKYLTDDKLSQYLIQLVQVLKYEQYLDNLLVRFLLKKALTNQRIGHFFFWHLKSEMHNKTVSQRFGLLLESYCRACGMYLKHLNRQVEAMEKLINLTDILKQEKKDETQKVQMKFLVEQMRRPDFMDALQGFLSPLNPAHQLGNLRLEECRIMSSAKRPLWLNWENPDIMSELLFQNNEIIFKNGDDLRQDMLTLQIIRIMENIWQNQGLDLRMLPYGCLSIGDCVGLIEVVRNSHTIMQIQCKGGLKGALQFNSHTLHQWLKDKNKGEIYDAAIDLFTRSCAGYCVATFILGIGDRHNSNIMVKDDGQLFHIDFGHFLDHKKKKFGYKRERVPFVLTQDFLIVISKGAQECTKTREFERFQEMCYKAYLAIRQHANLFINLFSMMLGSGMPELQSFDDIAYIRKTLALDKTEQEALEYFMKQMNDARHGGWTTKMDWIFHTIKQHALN
T1 sequence (P27986 whole entry partner): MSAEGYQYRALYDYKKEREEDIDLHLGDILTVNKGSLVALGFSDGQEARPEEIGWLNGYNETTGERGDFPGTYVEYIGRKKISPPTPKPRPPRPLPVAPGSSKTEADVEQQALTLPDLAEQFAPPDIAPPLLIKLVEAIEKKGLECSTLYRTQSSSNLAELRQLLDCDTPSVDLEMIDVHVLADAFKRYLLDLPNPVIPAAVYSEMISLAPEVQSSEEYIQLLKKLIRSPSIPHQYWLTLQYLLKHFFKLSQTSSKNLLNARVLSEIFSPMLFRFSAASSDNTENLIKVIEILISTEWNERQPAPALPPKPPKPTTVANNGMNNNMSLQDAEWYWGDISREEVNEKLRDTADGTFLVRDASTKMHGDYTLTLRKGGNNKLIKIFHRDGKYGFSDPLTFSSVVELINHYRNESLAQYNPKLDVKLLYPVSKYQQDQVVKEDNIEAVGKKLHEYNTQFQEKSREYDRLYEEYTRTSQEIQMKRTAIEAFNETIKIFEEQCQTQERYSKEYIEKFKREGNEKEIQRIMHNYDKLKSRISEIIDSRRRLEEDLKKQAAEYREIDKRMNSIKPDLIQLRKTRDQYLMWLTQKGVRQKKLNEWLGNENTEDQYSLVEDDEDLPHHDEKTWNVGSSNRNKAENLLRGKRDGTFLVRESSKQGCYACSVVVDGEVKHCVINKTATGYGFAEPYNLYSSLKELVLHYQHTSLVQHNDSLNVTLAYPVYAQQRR

For orientation: IC50 means the concentration needed to halve the response being measured. For the compound `Cc1cc(C(C)Nc2ccccc2C(=O)O)c2nc(-c3cc(C(N)=O)c4[nH]ccc4c3)cc(=O)n2c1` (stereo not drawn) [Compound 753], the IC50 is 500 to 2000 nM and the “T47D pAKT S473 HTRF IC50 (H1047R): T47D (H1047R) selectivity over SKBR3 (WT)” value is “B (B denotes 20-fold≥value>5-fold)”.

As to `Cc1cc([C@H](C)Nc2ccccc2C(=O)O)c2nc(-c3cc(C(N)=O)c4[nH]ccc4c3)cc(=O)n2c1` [Compound 754], the IC50 was above 2000 nM and the “T47D pAKT S473 HTRF IC50 (H1047R): T47D (H1047R) selectivity over SKBR3 (WT)” value is recorded as “C (C denotes ≤5-fold)”.

As for `Cc1cc([C@@H](C)Nc2ccccc2C(=O)O)c2nc(C3CCN(S(N)(=O)=O)CC3)cc(=O)n2c1` [Compound 755], the IC50 is above 2000 nM and the “T47D pAKT S473 HTRF IC50 (H1047R): T47D (H1047R) selectivity over SKBR3 (WT)” value is recorded as “C (C denotes ≤5-fold)”.

For the compound `Cc1cc([C@H](C)Nc2ccccc2C(=O)O)c2nc(C3CCN(S(N)(=O)=O)CC3)cc(=O)n2c1` [Compound 756], the IC50 is above 2000 nM and the “T47D pAKT S473 HTRF IC50 (H1047R): T47D (H1047R) selectivity over SKBR3 (WT)” value is recorded as “C (C denotes ≤5-fold)”.

For the compound `Cc1cc(C(C)Nc2ccccc2C(=O)O)c2nc(-c3ccc4c(c3)C(C)NN4C)cc(=O)n2c1` (stereo not drawn) [Compound 757], the IC50 is above 2000 nM and the “T47D pAKT S473 HTRF IC50 (H1047R): T47D (H1047R) selectivity over SKBR3 (WT)” value was “C (C denotes ≤5-fold)”.

In the case of `CNc1nn(C)c2ccc(-c3cc(=O)n4cc(C)cc(C(C)Nc5ccccc5C(=O)O)c4n3)cc12` (stereo not drawn) [Compound 758], the IC50 fell in the range of 100 to 500 nM and the “T47D pAKT S473 HTRF IC50 (H1047R): T47D (H1047R) selectivity over SKBR3 (WT)” value is “A (A denotes >20-fold)”.

For the compound `Cc1cc(C(C)NC2=C(C(=O)O)C=CCC2)c2nc(-c3ccc(CC4CCN(C(=O)C5CC5)CC4)nc3)cc(=O)n2c1` (stereo not drawn) [Compound 759], the “T47D pAKT S473 HTRF IC50 (H1047R): T47D (H1047R) selectivity over SKBR3 (WT)” value is given as “C (C denotes ≤5-fold)”.

Consider `Cc1cc([C@@H](C)Nc2ccccc2C(=O)O)c2nc(-c3cnc4c(c3)c(C)nn4C)c(C)c(=O)n2c1` [Compound 762], for which the IC50 is below 100 nM and the “T47D pAKT S473 HTRF IC50 (H1047R): T47D (H1047R) selectivity over SKBR3 (WT)” value is reported as “A (A denotes >20-fold)”.

Take `Cc1cc([C@H](C)Nc2ccccc2C(=O)O)c2nc(-c3cnc4c(c3)c(C)nn4C)c(C)c(=O)n2c1` [Compound 763]: the IC50 fell in the range of 500 to 2000 nM and the “T47D pAKT S473 HTRF IC50 (H1047R): T47D (H1047R) selectivity over SKBR3 (WT)” value was “B (B denotes 20-fold≥value>5-fold)”.

For the compound `Cc1cc([C@H](C)Nc2ccccc2C(=O)O)c2nc(-c3ccc4c(c3)CC(=O)N4)cc(=O)n2c1` [Compound 764], the “T47D pAKT S473 HTRF IC50 (H1047R): T47D (H1047R) selectivity over SKBR3 (WT)” value is recorded as “A (A denotes >20-fold)”.

With `Cc1cc([C@H](C)Nc2ccccc2C(=O)O)c2nc(-c3ccc4c(c3)CC(=O)N4)cc(=O)n2c1` [Compound 766], the “T47D pAKT S473 HTRF IC50 (H1047R): T47D (H1047R) selectivity over SKBR3 (WT)” value is on record as “C (C denotes ≤5-fold)”.

`CNc1nn(C)c2ccc(-c3cc(=O)n4cc(C)cc([C@@H](C)Nc5ccccc5C(=O)O)c4n3)cc12` [Compound 767]: the IC50 is below 100 nM and the “T47D pAKT S473 HTRF IC50 (H1047R): T47D (H1047R) selectivity over SKBR3 (WT)” value is recorded as “A (A denotes >20-fold)”.

Regarding `CNc1nn(C)c2ccc(-c3cc(=O)n4cc(C)cc([C@H](C)Nc5ccccc5C(=O)O)c4n3)cc12` [Compound 768], the IC50 is 100 to 500 nM and the “T47D pAKT S473 HTRF IC50 (H1047R): T47D (H1047R) selectivity over SKBR3 (WT)” value is on record as “A (A denotes >20-fold)”.

Take `Cc1cc(C(C)Nc2ccccc2C(=O)O)c2nc(-c3ccc4c(c3)c(C(F)F)nn4C)cc(=O)n2c1` (stereo not drawn) [Compound 769]: the IC50 is 100 to 500 nM and the “T47D pAKT S473 HTRF IC50 (H1047R): T47D (H1047R) selectivity over SKBR3 (WT)” value is on record as “A (A denotes >20-fold)”.

In the case of `Cc1cc(C(C)Nc2ccccc2C(=O)O)c2nc(-n3cc(C(N)=O)c4ccccc43)cc(=O)n2c1` (stereo not drawn) [Compound 771], the IC50 lay within 500 to 2000 nM and the “T47D pAKT S473 HTRF IC50 (H1047R): T47D (H1047R) selectivity over SKBR3 (WT)” value is listed as “B (B denotes 20-fold≥value>5-fold)”.

`Cc1cc([C@H](C)Nc2ccccc2C(=O)O)c2nc(-n3cc(C(N)=O)c4ccccc43)cc(=O)n2c1` [Compound 772]: the IC50 was above 2000 nM and the “T47D pAKT S473 HTRF IC50 (H1047R): T47D (H1047R) selectivity over SKBR3 (WT)” value was “C (C denotes ≤5-fold)”.

As for `Cc1cc(C(C)Nc2ccccc2C(=O)O)c2nc(-n3cnc4cc(O)ccc43)cc(=O)n2c1` (stereo not drawn) [Compound 773], the IC50 fell in the range of 500 to 2000 nM and the “T47D pAKT S473 HTRF IC50 (H1047R): T47D (H1047R) selectivity over SKBR3 (WT)” value is recorded as “B (B denotes 20-fold≥value>5-fold)”.

Take `Cc1cc([C@H](C)Nc2ccccc2C(=O)O)c2nc(-n3cnc4cc(O)ccc43)cc(=O)n2c1` [Compound 774]: the concentration for half-maximal inhibition (IC50) was above 2000 nM and the “T47D pAKT S473 HTRF IC50 (H1047R): T47D (H1047R) selectivity over SKBR3 (WT)” value is given as “C (C denotes ≤5-fold)”.

For `Cc1cc([C@@H](C)Nc2ccccc2C(=O)O)c2nc(-c3ccc4c(c3)c(C)c(C)n4C)cc(=O)n2c1` [Compound 775], the IC50 is below 100 nM and the “T47D pAKT S473 HTRF IC50 (H1047R): T47D (H1047R) selectivity over SKBR3 (WT)” value was “A (A denotes >20-fold)”.

In the case of `CC1=CC2C(=O)C=C([C@H]3CC[C@H](CC4CC[C@H](O)C4)CC3)N=C2C([C@H](C)Nc2ccccc2C(=O)O)=C1` (stereo partly drawn) [Compound 778], the half-inhibitory concentration (IC50) is above 2000 nM and the “T47D pAKT S473 HTRF IC50 (H1047R): T47D (H1047R) selectivity over SKBR3 (WT)” value was “C (C denotes ≤5-fold)”.

For `Cc1cc(C(C)Nc2ccccc2C(=O)O)c2nc(N3C[C@H](C)C[C@H](C(F)F)C3)cc(=O)n2c1` (stereo partly drawn) [Compound 781], the IC50 lay within 100 to 500 nM and the “T47D pAKT S473 HTRF IC50 (H1047R): T47D (H1047R) selectivity over SKBR3 (WT)” value is listed as “A (A denotes >20-fold)”.

`Cc1cc(C(C)Nc2cccc3c2=NCN=3)c2nc(N3CCOCC3)cc(=O)n2c1` (stereo not drawn) [Compound 782]: the IC50 was above 2000 nM and the “T47D pAKT S473 HTRF IC50 (H1047R): T47D (H1047R) selectivity over SKBR3 (WT)” value was “C (C denotes ≤5-fold)”.

In the case of `Cc1cc([C@@H](C)NC2=C(C(=O)O)C=CCC2)c2nc(-c3ccc(CC4CCN(C(=O)C5CC5)CC4)nc3)cc(=O)n2c1` [Compound 783], the IC50 was above 2000 nM and the “T47D pAKT S473 HTRF IC50 (H1047R): T47D (H1047R) selectivity over SKBR3 (WT)” value is “C (C denotes ≤5-fold)”.

Consider `Cc1cc([C@H](C)NC2=C(C(=O)O)C=CCC2)c2nc(-c3ccc(CC4CCN(C(=O)C5CC5)CC4)nc3)cc(=O)n2c1` [Compound 784], for which the IC50 is above 2000 nM and the “T47D pAKT S473 HTRF IC50 (H1047R): T47D (H1047R) selectivity over SKBR3 (WT)” value is given as “C (C denotes ≤5-fold)”.

For `Cc1cc([C@@H](C)Nc2ccccc2C(=O)O)c2nc(-c3ccc4c(c3)c(N)nn4C)c(C)c(=O)n2c1` [Compound 785], the IC50 was below 100 nM and the “T47D pAKT S473 HTRF IC50 (H1047R): T47D (H1047R) selectivity over SKBR3 (WT)” value is recorded as “A (A denotes >20-fold)”.

Turning to `Cc1cc([C@H](C)Nc2ccccc2C(=O)O)c2nc(-c3ccc4c(c3)c(N)nn4C)cc(=O)n2c1` [Compound 786], the half-inhibitory concentration (IC50) is above 2000 nM and the “T47D pAKT S473 HTRF IC50 (H1047R): T47D (H1047R) selectivity over SKBR3 (WT)” value is “C (C denotes ≤5-fold)”.

For the compound `Cc1cc([C@@H](C)Nc2ccccc2C(=O)O)c2nc(-c3ccc4c(c(N)nn4C)c3C)c(C)c(=O)n2c1` [Compound 787], the half-inhibitory concentration (IC50) is above 2000 nM and the “T47D pAKT S473 HTRF IC50 (H1047R): T47D (H1047R) selectivity over SKBR3 (WT)” value is on record as “C (C denotes ≤5-fold)”.

On to `Cc1cc([C@H](C)Nc2ccccc2C(=O)O)c2nc(-c3ccc4c(c(N)nn4C)c3C)c(C)c(=O)n2c1` [Compound 788], for which the IC50 was in the range of 100 to 500 nM and the “T47D pAKT S473 HTRF IC50 (H1047R): T47D (H1047R) selectivity over SKBR3 (WT)” value is recorded as “A (A denotes >20-fold)”.

Consider `Cc1cc(C(C)Nc2ccccc2C(=O)O)c2nc(-c3ccc4c(c3)c(=O)[nH]n4C)cc(=O)n2c1` (stereo not drawn) [Compound 790], for which the IC50 was above 2000 nM and the “T47D pAKT S473 HTRF IC50 (H1047R): T47D (H1047R) selectivity over SKBR3 (WT)” value is “C (C denotes ≤5-fold)”.

In the case of `CCC(=O)Nc1ccc(C(=O)O)c(NC(C)c2cc(C)cn3c(=O)cc(N4CCOCC4)nc23)c1` (stereo not drawn) [Compound 791], the IC50 is above 2000 nM and the “T47D pAKT S473 HTRF IC50 (H1047R): T47D (H1047R) selectivity over SKBR3 (WT)” value is listed as “C (C denotes ≤5-fold)”.
